In patent publication US7932254B2, “Pyrrolopyrazine kinase inhibitors” (Roche Palo Alto, priority 2008, dated 2011):

Legend:
[1] = molecular target: JAK3 (recombinant human kinase domain) (Homo sapiens, UniProt P52333); experiment: Determination of IC50 of Janus Kinase (JAK) inhibition, radioactive end-point 33P-ATP assay, JAK3; assay type: biochemical; conditions: ATP 1.5 uM, peptide 50 uM, 20 minutes, room temperature, read-out: IC50 h-jak3-sf21-c
Source text: Determination of IC50 of Janus Kinase (JAK) Inhibition: […]

Sequence of JAK3 (recombinant human kinase domain) (P52333 822-1111 limits assumed): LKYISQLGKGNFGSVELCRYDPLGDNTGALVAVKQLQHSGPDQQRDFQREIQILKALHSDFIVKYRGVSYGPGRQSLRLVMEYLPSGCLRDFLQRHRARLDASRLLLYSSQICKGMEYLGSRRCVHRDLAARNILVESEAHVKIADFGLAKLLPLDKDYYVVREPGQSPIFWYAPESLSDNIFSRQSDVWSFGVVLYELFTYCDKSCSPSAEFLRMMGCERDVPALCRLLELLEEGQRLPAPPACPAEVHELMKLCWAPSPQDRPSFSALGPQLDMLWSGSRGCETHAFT

For CCc1cccc(-c2cnc3[nH]cc(C(=O)C(C)(C)C)c3n2)c1 [Example 9, 1-[2-(3-Ethyl-phenyl)-5H-pyrrolo[2,3-b]pyrazin-7-yl]-2,2-dimethyl-propan-1-one], the melting point was 199 to 200.1 °C.

Work on CC(C)(C)C(=O)c1c[nH]c2ncc(-c3cc(NS(=O)(=O)c4ccc(N)cc4)c4cc[nH]c4c3)nc12 [Compound I-19, 4-Amino-N-{6-[7-(2,2-dimethyl-propionyl)-5H-pyrrolo[2,3-b]pyrazin-2-yl]-1H-indol-4-yl}-benzenesulfonamide] yielded a melting point of 285 to 292 °C.

In the case of COc1ccc(S(=O)(=O)Nc2cc(-c3cnc4[nH]cc(C(=O)C(C)(C)C)c4n3)cc3[nH]ccc23)cc1 [Compound I-35, N-{6-[7-(2,2-Dimethyl-propionyl)-5H-pyrrolo[2,3-b]pyrazin-2-yl]-1H-indol-4-yl}-4-methoxy-benzenesulfonamide], the melting point is reported as 231 to 233 °C.

CC(C)(C)C(=O)c1c[nH]c2ncc(-c3cc(NS(=O)(=O)c4ccc(Cl)cc4)c4cc[nH]c4c3)nc12 [Compound I-33, 4-Chloro-N-{6-[7-(2,2-dimethyl-propionyl)-5H-pyrrolo[2,3-b]pyrazin-2-yl]-1H-indol-4-yl}-benzenesulfonamide] showed a melting point of 264 to 266 °C.

Work on CC1(C(=O)c2c[nH]c3ncc(-c4ccc5[nH]ccc5c4)nc23)CCCCC1 [Compound I-52, [2-(1H-Indol-5-yl)-5H-pyrrolo[2,3-b]pyrazin-7-yl]-(1-methyl-cyclohexyl)-methanone] yielded an IC50 [1] of 32.4 nM.

In the case of CN1CCOc2ccc(-c3cnc4[nH]cc(C(=O)C(C)(C)C)c4n3)cc21 [Compound I-8, 2,2-Dimethyl-1-[2-(4-methyl-3,4-dihydro-2H-benzo[1,4]oxazin-6-yl)-5H-pyrrolo[2,3-b]pyrazin-7-yl]-propan-1-one], the melting point is reported as 255 to 265 °C.

With CC(C)(C)C(=O)c1c[nH]c2ncc(-c3cc(NS(C)(=O)=O)c4cc[nH]c4c3)nc12 [Compound I-26, N-{6-[7-(2,2-Dimethyl-propionyl)-5H-pyrrolo[2,3-b]pyrazin-2-yl]-1H-indol-4-yl}-methanesulfonamide] the melting point was > 300 °C.

In the case of CC1(C(=O)c2c[nH]c3ncc(-c4ccc5c(c4)NC(=O)C(C)(C)O5)nc23)CCCCC1 [Compound I-21, 2,2-Dimethyl-6-[7-(1-methyl-cyclohexanecarbonyl)-5H-pyrrolo[2,3-b]pyrazin-2-yl]-4H-benzo[1,4]oxazin-3-one], the melting point is reported as > 300 °C.

For CC(C)(C)C(=O)c1c[nH]c2ncc(-c3ccc4c(ccn4Cc4cccnc4)c3)nc12 [Compound I-48, 2,2-Dimethyl-1-[2-(1-pyridin-3-ylmethyl-1H-indol-5-yl)-5H-pyrrolo[2,3-b]pyrazin-7-yl]-propan-1-one], the melting point was 170 to 171 °C.

For CN1C(=O)COc2ccc(-c3cnc4[nH]cc(C(=O)C(C)(C)C)c4n3)cc21 [Compound I-10, 6-[7-(2,2-Dimethyl-propionyl)-5H-pyrrolo[2,3-b]pyrazin-2-yl]-4-methyl-4H-benzo[1,4]oxazin-3-one], the melting point was 277 to 278 °C.

With CC(C)(C)C(=O)c1c[nH]c2ncc(-c3cc(NS(=O)(=O)c4ccccc4)c4cc[nH]c4c3)nc12 [Compound I-27, N-{6-[7-(2,2-Dimethyl-propionyl)-5H-pyrrolo[2,3-b]pyrazin-2-yl]-1H-indol-4-yl}-benzenesulfonamide] the melting point was 275 to 285 °C.

For CN1CC=C(c2c[nH]c3ccc(-c4cnc5[nH]cc(C(=O)C(C)(C)C)c5n4)cc23)CC1 [Compound I-50, 2,2-Dimethyl-1-{2-[3-(1-methyl-1,2,3,6-tetrahydro-pyridin-4-yl)-1H-indol-5-yl]-5H-pyrrolo[2,3-b]pyrazin-7-yl}-propan-1-one], the IC50 [1] was 155 nM and the melting point was 263 to 265 °C.

With CC(C)(C)C(=O)c1c[nH]c2ncc(-c3ccc4c(c3)NC(=O)C(C)(C)O4)nc12 [Compound I-7, 6-[7-(2,2-Dimethyl-propionyl)-5H-pyrrolo[2,3-b]pyrazin-2-yl]-2,2-dimethyl-4H-benzo[1,4]oxazin-3-one] the melting point was > 300 °C.

Work on CN1CCOc2cc(-c3cnc4[nH]cc(C(=O)C5(C)CCCCC5)c4n3)ccc21 [Compound I-39, (1-Methyl-cyclohexyl)-[2-(4-methyl-3,4-dihydro-2H-benzo[1,4]oxazin-7-yl)-5H-pyrrolo[2,3-b]pyrazin-7-yl]-methanone] yielded a melting point of 243 to 244 °C.

For CN(c1cc(-c2cnc3[nH]cc(C(=O)C(C)(C)C)c3n2)cc2[nH]ccc12)S(=O)(=O)c1ccc(N)cc1 [Compound I-54, 4-Amino-N-{6-[7-(2,2-dimethyl-propionyl)-5H-pyrrolo[2,3-b]pyrazin-2-yl]-1H-indol-4-yl}-N-methyl-benzenesulfonamide], the IC50 [1] was 158 nM.

With CC(C)(C)C(=O)c1c[nH]c2ncc(-c3ccccn3)nc12 [Example 8, 2,2-Dimethyl-1-(2-pyridin-2-yl-5H-pyrrolo[2,3-b]pyrazin-7-yl)-propan-1-one] the melting point was 276 to 278 °C.

In the case of CC(C)(C)C(=O)c1c[nH]c2ncc(-c3ccc4c(c3)SCC(=O)N4)nc12 [Compound I-22, 7-[7-(2,2-Dimethyl-propionyl)-5H-pyrrolo[2,3-b]pyrazin-2-yl]-4H-benzo[1,4]thiazin-3-one], the melting point is reported as > 300 °C.

For CC(C)(C)C(=O)c1c[nH]c2ncc(-c3ccc4c(ccn4Cc4ccncc4)c3)nc12 [Compound I-49, 2,2-Dimethyl-1-[2-(1-pyridin-4-ylmethyl-1H-indol-5-yl)-5H-pyrrolo[2,3-b]pyrazin-7-yl]-propan-1-one], the IC50 [1] was 152 nM and the melting point was 241 to 243 °C.

For CC(C)(C)C(=O)c1c[nH]c2ncc(-c3ccc4c(c3)NC(=O)CO4)nc12 [Compound I-9, 6-[7-(2,2-Dimethyl-propionyl)-5H-pyrrolo[2,3-b]pyrazin-2-yl]-4H-benzo[1,4]oxazin-3-one], the melting point was > 350 °C.

With CC(C)(C)C(=O)c1c[nH]c2ncc(-c3cc(N4CCCC4)ccn3)nc12 [Example 6, 2,2-Dimethyl-1-[2-(4-pyrrolidin-1-yl-pyridin-2-yl)-5H-pyrrolo[2,3-b]pyrazin-7-yl]-propan-1-one] the melting point was 260 to 263 °C.

CC(C)(C)C(=O)c1c[nH]c2ncc(-c3cc(NS(=O)(=O)c4cccnc4)c4cc[nH]c4c3)nc12 [Compound I-37, Pyridine-3-sulfonic acid {6-[7-(2,2-dimethyl-propionyl)-5H-pyrrolo[2,3-b]pyrazin-2-yl]-1H-indol-4-yl}-amide] gave a melting point of 305 to 307 °C.

Work on CC(C)(C)C(=O)c1c[nH]c2ncc(-c3cc(NS(=O)(=O)c4ccc(F)cc4)c4cc[nH]c4c3)nc12 [Compound I-34, N-{6-[7-(2,2-Dimethyl-propionyl)-5H-pyrrolo[2,3-b]pyrazin-2-yl]-1H-indol-4-yl}-4-fluoro-benzenesulfonamide] yielded a melting point of 295 to 297 °C.

Work on CC(C)(C)C(=O)c1c[nH]c2ncc(-c3ccc4c(ccn4Cc4ccccn4)c3)nc12 [Compound I-46, 2,2-Dimethyl-1-[2-(1-pyridin-2-ylmethyl-1H-indol-5-yl)-5H-pyrrolo[2,3-b]pyrazin-7-yl]-propan-1-one] yielded a melting point of 194 to 196 °C.

CN1CCOc2cc(-c3cnc4[nH]cc(C(=O)C(C)(C)C)c4n3)ccc21 [Compound I-3, 2,2-Dimethyl-1-[2-(4-methyl-3,4-dihydro-2H-benzo[1,4]oxazin-7-yl)-5H-pyrrolo[2,3-b]pyrazin-7-yl]-propan-1-one] showed a melting point of 233 to 234 °C.
